Test results from patent US12643912B2, “Macrocyclic compounds, a process for their preparation and pharmaceutical compositions containing them” (LES LABORATOIRES SERVIER, priority 2020, dated 2026).
Read-outs that look alike come from different tables or passages of the source.

Legend:
[1] = system: Nrf2 (Keap1-NRF2 nuclear translocation); experiment: U2OS translocation assay (PathHunter U2OS Keap1-NRF2 Nuclear Translocation Cell Line); format: cell-based
How it was run: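 PathHunter U2OS line expressing Nrf2-enzyme-donor fusion and nuclear acceptor enzyme, 7 500 cells/well in Opti-MEM, 1% FBS. Compounds incubated 3 h at 37° C. Luminescence after 60 min with detection reagent, normalized between 1% DMSO and 10 μM andrographolide.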

Keap1 (A321-C624) (h) = target: T1, Keap1 (A321-C624) (h) (Homo sapiens, UniProt Q14145); experiment: Surface Plasmon Resonance binding assay to Kelch domain of KEAP1; settings: Biacore T200, 25° C., immobilized His-Thromb-KEAP1(A321-C624), single cycle kinetics, KD=kd/ka from 1:1 fit; read-out: Keap1 (A321-C624) (h) direct/SPR (KD)
T1 construct: His-Thromb-KEAP1(A321-C624) acquired from Novalix (batch PU-P01) was immobilized covalently by amine coupling; His tag (N); thrombin cleavage site (Thromb) (N); purchased Novalix batch PU-P01
How it was run: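 His-Thromb-KEAP1(A321-C624) amine-coupled on CM5 chip to 1250 RU; amine blank reference. Run at 25° C in HEPES pH 7.4, 150 mM NaCl, 3 mM EDTA, 1 mM TCEP, 0.05% P20, 5% DMSO; 180 s association, 720 s dissociation, 50 μL/min. KD = kd/ka from 1:1 kinetic fit, double-referenced, DMSO solvent-corrected.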

[2] = Homo sapiens, U2OS, 3 h, read-out: CELLULAR U2OS EC50 (nM), U2OS Keap1-NRF2 nuclear translocation cells, 3 h incubation, luminescence, normalized between 1% DMSO and 10 μM andrographolide
[3] = read-out: CELLULAR U2OS EC50, U2OS Keap1-NRF2 nuclear translocation cells, 3 h incubation, luminescence, normalized between 1% DMSO and 10 μM andrographolide

T1 sequence (Q14145 321-624): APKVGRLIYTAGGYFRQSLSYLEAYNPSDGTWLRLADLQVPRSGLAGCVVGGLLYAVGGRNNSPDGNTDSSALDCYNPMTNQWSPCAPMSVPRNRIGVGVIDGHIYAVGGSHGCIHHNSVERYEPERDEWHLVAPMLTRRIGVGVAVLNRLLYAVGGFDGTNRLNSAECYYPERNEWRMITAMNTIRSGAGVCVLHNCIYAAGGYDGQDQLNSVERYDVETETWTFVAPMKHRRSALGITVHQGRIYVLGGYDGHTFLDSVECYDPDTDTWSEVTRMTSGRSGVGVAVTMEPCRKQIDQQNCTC

Kd (Keap1 (A321-C624) (h)) [nM]	Structure (SMILES)	EC50 [1, 2] [nM]	EC50 [1, 3] [nM]
0.549	Cc1ccc2cc1[C@@H](C)N1Cc3cc(ccc3OS1(=O)=O)OCCCCCn1nnc3c(C)c(ccc31)[C@H]2CC(=O)O [Example 20a, [(2R,8S)-2,4,32-Trimethyl-28,28-dioxo-22,27-dioxa-28λ^6-thia-1,14,15,16-tetraazahexacyclo[21.5.3.1^3,70.1^9,130.0^12,160.0^26,30]tritriaconta-3(33),4,6,9(32),10,12,14,23,25,30-decaen-8-yl]acetic acid]	1.99	–
12.2	Cc1ccc2cc1[C@@H](C)N1Cc3cc(ccc3OS1(=O)=O)OCCOCCCn1nnc3c(C)c(ccc31)[C@@H]2CC(=O)O [Example 26b, [(2R,8R)-2,4,33-trimethyl-29,29-dioxo-20,23,28-trioxa-29λ^6-thia-1,14,15,16-tetraazahexacyclo[22.5.3.1^3,70.1^9,130.0^12,160.0^27,31]tetratriaconta-3(34),4,6,9(33),10,12,14,24,26,31-decaen-8-yl]acetic acid]	88.8	–
1.34	Cc1ccc2cc1[C@@H](C)N1Cc3cc(ccc3OS1(=O)=O)OCCCCCCn1nnc3c(C)c(ccc31)[C@@H]2CC(=O)O [Example 19a, [(2R,8R)-2,4,33-Trimethyl-29,29-dioxo-23,28-dioxa-29λ^6-thia-1,14,15,16-tetraazahexacyclo[22.5.3.1^3,70.1^9,130.0^12,160.0^27,31]tetratriaconta-3(34),4,6,9(33),10,12,14,24,26,31-decaen-8-yl]acetic acid]	73.6	–
604	COc1cc2cc(c1Cl)CN1Cc3cc(ccc3OS1(=O)=O)OCCCCn1nnc3c(C)c(ccc31)C2CC(=O)O (single isomer, unassigned) [Example 38b, [4-Chloro-5-methoxy-31-methyl-27,27-dioxo-21,26-dioxa-27λ^6-thia-1,14,15,16-tetraazahexacyclo[20.5.3.1^3,70.1^9,130.0^12,160.0^25,29]dotriaconta-3(32),4,6,9(31),10,12,14,22,24,29-decaen-8-yl]acetic acid]	> 3160	–
2920	Cc1c2ccc3c1nnn3CCCCOc1ccc3c(c1)CN(Cc1cc(cc(C(F)(F)F)c1)C2CC(=O)O)S(=O)(=O)O3 (single isomer, unassigned) [Example 12b, [31-Methyl-27,27-dioxo-5-(trifluoromethyl)-21,26-dioxa-27λ^6-thia-1,14,15,16-tetraazahexacyclo[20.5.3.1^3,70.1^9,130.0^12,160.0^25,29]dotriaconta-3(32),4,6,9(31),10,12,14,22,24,29-decaen-8-yl]acetic acid]	–	> 3160
3.25	COc1ccc2cc1[C@@H](C)N1Cc3cc(ccc3OS1(=O)=O)OCCCCn1nnc3c(C)c(ccc31)[C@H]2CC(=O)O [Example 28b, [(2R,8S)-4-methoxy-2,31-dimethyl-27,27-dioxo-21,26-dioxa-27λ^6-thia-1,14,15,16-tetraazahexacyclo[20.5.3.1^3,70.1^9,130.0^12,160.0^25,29]dotriaconta-3(32),4,6,9(31),10,12,14,22,24,29-decaen-8-yl]acetic acid]	15.3	–
3070	Cc1c2ccc3c1nnn3CCCCOc1ccc3c(c1)CN(Cc1cc(cc(C(F)(F)F)c1)C2CC(=O)O)S(=O)(=O)O3 (single isomer, unassigned) [Example 12a, [31-Methyl-27,27-dioxo-5-(trifluoromethyl)-21,26-dioxa-27λ^6-thia-1,14,15,16-tetraazahexacyclo[20.5.3.1^3,70.1^9,130.0^12,160.0^25,29]dotriaconta-3(32),4,6,9(31),10,12,14,22,24,29-decaen-8-yl]acetic acid]	3160	–
9.02	Cc1cc2cc(c1Cl)CN1Cc3cc(ccc3OS1(=O)=O)OCCCCn1nnc3c(C)c(ccc31)C2CC(=O)O (single isomer, unassigned) [Example 36a, [4-Chloro-5,31-dimethyl-27,27-dioxo-21,26-dioxa-27λ^6-thia-1,14,15,16-tetraazahexacyclo[20.5.3.1^3,70.1^9,130.0^12,160.0^25,29]dotriaconta-3(32),4,6,9(31),10,12,14,22,24,29-decaen-8-yl]acetic acid]	–	126
7.64	Cc1ccc2cc1[C@@H](C)N1Cc3cc(ccc3OS1(=O)=O)OCCCCn1nnc3c(C)c(ccc31)[C@@H]2CC(=O)O [Example 3a, [(2R,8R)-2,4,31-Trimethyl-27,27-dioxo-21,26-dioxa-27λ^6-thia-1,14,15,16-tetraazahexacyclo[20.5.3.1^3,70.1^9,130.0^12,160.0^25,29]dotriaconta-3(32),4,6,9(31),10,12,14,22,24,29-decaen-8-yl]acetic acid]	79.5	–
176	COc1ccc2cc1CN1Cc3cc(ccc3OS1(=O)=O)OCc1ccccc1OCCCCn1nnc3c(C)c(ccc31)C2CC(=O)O (single isomer, unassigned) [Example 53b, [4-Methoxy-39-methyl-35,35-dioxo-21,29,34-trioxa-35λ^6-thia-1,14,15,16-tetraazaheptacyclo[28.5.3.1^3,70.1^9,130.0^12,160.0^22,270.0^33,37]tetraconta-3(40),4,6,9(39),10,12,14,22,24,26,30,32,37-tridecaen-8-yl]acetic acid]	–	899
0.631	Cc1ccc2cc1CN1Cc3cc(c(Cl)cc3OS1(=O)=O)OCCCCn1nnc3c(C)c(ccc31)C2CC(=O)O (single isomer, unassigned) [Example 22a, [23-Chloro-4,31-dimethyl-27,27-dioxo-21,26-dioxa-27λ^6-thia-1,14,15,16-tetraazahexacyclo[20.5.3.1^3,70.1^9,130.0^12,160.0^25,29]dotriaconta-3(32),4,6,9(31),10,12,14,22,24,29-decaen-8-yl]acetic acid]	–	17.2
8.86	Cc1ccc2cc1CN1Cc3cc(c(Cl)cc3OS1(=O)=O)OCCCCn1nnc3c(C)c(cc(Cl)c31)[C@@H]2CC(=O)O [Example 52, [(8R)-11,23-Dichloro-4,31-dimethyl-27,27-dioxo-21,26-dioxa-27λ^6-thia-1,14,15,16-tetraazahexacyclo[20.5.3.1^3,70.1^9,130.0^12,160.0^25,29]dotriaconta-3(32),4,6,9(31),10,12,14,22,24,29-decaen-8-yl]acetic acid]	180	–
3.54	COc1ccc2cc1CN1Cc3cc(ccc3OS1(=O)=O)OCCCCn1nnc3c(C)c(ccc31)C2CC(=O)O (single isomer, unassigned) [Example 10a, [4-Methoxy-31-methyl-27,27-dioxo-21,26-dioxa-27λ^6-thia-1,14,15,16-tetraazahexacyclo[20.5.3.1^3,70.1^9,130.0^12,160.0^25,29]dotriaconta-3(32),4,6,9(31),10,12,14,22,24,29-decaen-8-yl]acetic acid]	–	58.1
2	[2H]C([2H])(C(=O)O)[C@@H]1c2ccc(C)c(c2)CN2Cc3cc(ccc3OS2(=O)=O)OCCCCn2nnc3c(C)c1ccc32 [Example 55a, [(8R)-4,31-Dimethyl-27,27-dioxo-21,26-dioxa-27λ^6-thia-1,14,15,16-tetraazahexacyclo[20.5.3.1^3,70.1^9,130.0^12,160.0^25,29]dotriaconta-3(32),4,6,9(31),10,12,14,22,24,29-decaen-8-yl](^2H2)acetic acid]	183	–
391	COc1ccc2cc1CN1Cc3cc(ccc3OS1(=O)=O)OCc1ccccc1SCCCCn1nnc3c(C)c(ccc31)C2CC(=O)O (single isomer, unassigned) [Example 54b]	–	2270
2.11	Cc1ccc2cc1CN1Cc3cc(c(Cl)cc3OS1(=O)=O)OCCCCn1nnc3c(C)c(ccc31)C2CC(=O)O (single isomer, unassigned) [Example 22b, [23-Chloro-4,31-dimethyl-27,27-dioxo-21,26-dioxa-27λ^6-thia-1,14,15,16-tetraazahexacyclo[20.5.3.1^3,70.1^9,130.0^12,160.0^25,29]dotriaconta-3(32),4,6,9(31),10,12,14,22,24,29-decaen-8-yl]acetic acid]	–	111
2.42	Cc1ccc2cc1CN1Cc3cc(ccc3OS1(=O)=O)OCCCCCCn1nnc3c(C)c(ccc31)C2CC(=O)O (single isomer, unassigned) [Example 11a, [4,33-Dimethyl-29,29-dioxo-23,28-dioxa-29λ^6-thia-1,14,15,16-tetraazahexacyclo[22.5.3.1^3,70.1^9,130.0^12,160.0^27,31]tetratriaconta-3(34),4,6,9(33),10,12,14,24,26,31-decaen-8-yl]acetic acid]	–	109

Structure (SMILES)	Kd (Keap1 (A321-C624) (h)) [nM]	EC50 [1, 2] [nM]	EC50 [1, 3] [nM]
Cc1ccc2cc1[C@@H](C)N1Cc3cc(ccc3OS1(=O)=O)OCCCN(C)CCn1nnc3c(C)c(ccc31)[C@@H]2CC(=O)O [Example 21b, [(2R,8R)-2,4,19,33-tetramethyl-29,29-dioxo-23,28-dioxa-29λ^6-thia-1,14,15,16,19-pentaazahexacyclo[22.5.3.1^3,70.1^9,130.0^12,160.0^27,31]tetratriaconta-3(34),4,6,9(33),10,12,14,24,26,31-decaen-8-yl]acetic acid]	20.8	166	–
